Columns and labels:
[1] = British Pat. No. 1,390,091; cited from earlier work
[2] = test system: aggregation of thromocytes; settings: British Pat. No. 1,390,091; cited from earlier work
[3] = test system: respiratory depression associated with platelet aggregation and thrombosis induced by arachidonic acid; experiment: Inhibition of arachidonic acid-induced respiratory depression in mice; format: in vivo; settings: arachidonic acid 50 mg./kg. i.v. two hours later
Experimental: In a second test the in vivo activity is determined in mice. […] Mice were treated orally by gastric lavage with the test compounds in a starch suspension at various dosage levels. Two hours later a challenge dose of arachidonic acid was given to the mice intravenously at a concentration of 50 mg./kg. The period of respiratory distress for each animal was recorded in seconds by observation. The results of a typical compound of this invention appear in Table II in terms of percent inhibition in comparison with controls.

[4] = test system: carrageenin-induced edema; experiment: Acute anti-inflammatory activity, carrageenin-induced paw edema; format: in vivo, Royal Hart, Wistar strain rats; settings: 250 mg./kg. by gavage; 5 hours after drug, 4 hours after carrageenin; edema of control animals/edema of treated animals; >1.41 considered active
Experimental: In determining the acute anti-inflammatory activity, Royal Hart, Wistar strain rats ranging in weight from 80 to 90 grams were used. The rats were fasted overnight prior to dosing but had free access to water. The compounds were administered in aqueous suspension, by gavage, in a column of 1.7 ml. per 50 g. of rat [corresponds to the hydration volume used by Winter, et al., Proc. Soc. Exp. Biol. and Med. 111, 544-547 (1962)].
The phlogistic agent used was carrageenin prepared as a sterile 1% suspension in 0.9% aqueous sodium chloride for routine testing. A volume of 0.05 ml. was injected through a 26 gauge needle into the plantar tissue of the right hind paw. Measurements were made 5 hours after drug administration (4 hours after carrageenin challenge).
Volumes of both the normal and carrageenin inflamed feet were determined. The difference between the two measurements is considered to be the increased edema due to the carrageenin administration. Results are expressed as a C/T efficacy ratio (edema of control animals/edema of treated animals) and a C/T ratio of greater than 1.41 is considered active.

[5] = test system: platelet aggregation (collagen-induced, platelet rich plasma); experiment: Inhibition of collagen-induced platelet aggregation ex vivo after oral administration to male rats; format: in vivo; settings: rats bled after one to 2 hours, collagen 500 mcg./ml.
Experimental: The compounds were administered orally to male rats in various concentrations. After one to 2 hours the rats were bled and platelet rich plasma obtained. Collagen was added at a concentration of 500 mcg./ml. to induce platelet aggregation and comparisons were made between control and treated samples. The percent inhibition of aggregation produced by the test compound was recorded.

[6] = test system: adjuvant induced arthritis (Freund's adjuvant); experiment: Chronic inflammation, adjuvant induced arthritis; format: in vivo, Royal Hart, Wistar strain rats; settings: 50 mg./kg. oral once daily, days 0 through 13
Experimental: In a second test the activity against chronic inflammation in adjuvant induced arthritis was determined. Groups of 3 Royal Hart, Wistar strain rats, weighing 200±10 g. each were injected intradermally in the right hind paw with Freund's adjuvant (dried human tubercle bacilli in a mineral oil vehicle) at a dose of 2 mg./kg. of body weight. Test compounds were administered orally in a 1.5% starch vehicle at 50 mg./kg. of body weight once daily on days 0 through 13 post challenge. Control rats were treated in a similar manner, but given only starch vehicle. On the 14th day post challenge the diameter of the injected paw (primary lesion) was measured by micrometer caliper. The volume of inflamed paws was estimated from these measurements and the results are expressed as percent inhibition of swelling as compared to controls. At the same time, the other inflamed sites, such as ears, paws and tail (secondary lesions) were observed and each rat was graded as to the degree of inflammation and swelling present. The grading is based on a scale of 0 to 24, where 0 represents a complete absence of induced arthritic nodules and 24 represents the maximum degree of inflammation. The mean grade for each treated group is calculated and the effects of each compound are expressed as percent inhibition of the control grade. Table IV records the results of this test on a typical compound of this invention.

[7] = test system: ultraviolet induced erythema; experiment: Ultraviolet induced erythema in guinea pigs; format: in vivo, Albino guinea pigs; settings: maximum score 3.0
Experimental: Another method of determining a drug effect on conditions which result in inflammation is by measuring the effect on ultraviolet induced erythema in guinea pigs. Albino guinea pigs were depilitated on their flanks, the evening before testing, with a standard mixture of barium sulfide and gum acacia. On the morning of the test, groups of 4 guinea pigs were dosed by gavage one hour prior (-1 hour) to ultraviolet exposure. At 0 hour they were restrained in a plastic container which allows exposure of 3 circular spots. They were then exposed to ultraviolet irradiation from a "Hanovia" Kromayer lamp, model 10, for 60 seconds. At one and four hours, the degree of erythema for each of the three sites was assessed according to the following scoring system: 0=no erythema, 0.5=incomplete circle or faint erythema and 1.0=[…] circle of distinct erythema. Thus, the maximum score for each animal was 3.0.

[8] = 62.5 mg./kg. by gavage 1 hour prior to UV, 4 animals
[9] = 125 mg./kg. by gavage 1 hour prior to UV, 4 animals
[10] = 250 mg./kg. by gavage 1 hour prior to UV, 8 animals

SMILES | activity as indicated (antiphlogistic) [1] | activity as indicated (aggregation of thromocytes) [2] | % Inhibition (period of respiratory distress) ([3]; 1 mg./kg. oral) [%] | % Inhibition (period of respiratory distress) ([3]; 10 mg./kg. oral) [%] | % Inhibition (period of respiratory distress) ([3]; 25 mg./kg. oral) [%] | % Inhibition (period of respiratory distress) ([3]; 50 mg./kg. oral) [%] | C/T Edema Ratio [4] | % Inhibition (platelet aggregation) ([5]; 10 mg./kg. oral) [%] | % Inhibition (platelet aggregation) ([5]; 25 mg./kg. oral) [%] | % Inhibition (platelet aggregation) ([5]; 50 mg./kg. oral) [%] | % Inhibition of Swelling (primary lesion) ([6]; 14th day post challenge, injected paw) [%] | % Inhibition of Control grade (secondary lesion) ([6]; 14th day, grade scale 0 to 24) [%] | Score (avg.) 1 hour [7, 8] | Score (avg.) 4 hour [7, 8] | Score (avg.) 1 hour [7, 9] | Score (avg.) 4 hour [7, 9] | Score (avg.) 1 hour [7, 10] | Score (avg.) 4 hour [7, 10]
O=C1CCC(c2ccc(-c3ccccc3)cc2)O1 (stereo not drawn) [5-(4-biphenylyl)-2-hydro-2-(3H)-furanone] | antiphlogistic | inhibitory |  |  |  |  |  |  |  |  |  |  |  |  |  |  |  | 
O=C(O)CCC(O)c1ccc(-c2ccccc2)cc1 (stereo not drawn) [γ-Hydroxy-4-biphenylbutyric acid] |  |  | 46 | 51 | 66 | 63 | 2.0 | 25 | 25 | 19 | 51 | 30 | 0 | 2.1 | 0.4 | 2.9 | 0 | 2.0
